{"source": "PubChem BioAssay AID1996"}
{"conditions": "buffer; pH 7.4; 200.0 µM", "units": {"solubility kinetic": "µg/mL"}}
{"molecule": "CN(CC(=O)NCCc1ccc(S(N)(=O)=O)cc1)CC(=O)Nc1ccccc1C(F)(F)F", "solubility kinetic": "> 70.9"}
{"molecule": "COc1cccc(C2(C)NC(=O)N(CC(=O)Nc3ccc(N4CCOCC4)cc3)C2=O)c1", "note": "(configuration not stated)", "solubility kinetic": 57.7}
{"molecule": "O=C(COc1ccccc1F)Nc1ccc2c(c1)CCC2", "solubility kinetic": 4}
{"molecule": "Cc1ccc(-n2c(C)nn(CC#N)c2=O)cc1", "solubility kinetic": "> 34.2"}
{"molecule": "COC(=O)c1ccc(NC(=O)C(=O)c2cccn2C)cc1", "solubility kinetic": 3.2}
{"molecule": "COC(=O)c1sc(SC)c(-c2ccon2)c1C", "solubility kinetic": "< 0.6"}
{"molecule": "Cc1ccc(Oc2ccccc2NC(=O)C2=COCCO2)cc1", "solubility kinetic": 15.8}
{"molecule": "CCN1CCN(C(=O)c2c(-c3ccccc3)noc2C)CC1", "solubility kinetic": 40}
{"molecule": "COc1ccccc1N1CCN(CC(=O)c2c[nH]c3ccccc23)CC1", "solubility kinetic": 6.6}
{"molecule": "COc1ccc2c(c1)CC/C2=N\\OC(=O)c1ccccc1C", "solubility kinetic": "< 0.6"}
{"molecule": "Cc1c(Cl)cccc1NC(=S)NCCc1ccc(Cl)cc1", "solubility kinetic": 0.4}
{"molecule": "Cc1ccc(Nc2nc(-c3cccs3)cs2)nc1", "solubility kinetic": 0.8}
{"molecule": "COc1cc(CC(=O)OCC(=O)NC2CCCCCC2)cc(OC)c1OC", "solubility kinetic": "> 56.9"}
{"molecule": "CC(=O)c1sc2nc(-c3ccco3)ccc2c1N", "solubility kinetic": 6}
{"molecule": "O=[N+]([O-])c1ccccc1CSc1ccccn1", "solubility kinetic": 13.7}
{"molecule": "COc1ccc(C2NC(=O)NC(C)=C2[N+](=O)[O-])cc1OC", "note": "(configuration not stated)", "solubility kinetic": "> 44"}
{"molecule": "CSCCC(NC(=O)c1ccco1)c1nc2ccccc2[nH]1", "note": "(configuration not stated)", "solubility kinetic": "> 47.3"}
{"molecule": "COc1ccc(Nc2nc(N)c([N+](=O)[O-])c(NCCO)n2)cc1", "solubility kinetic": 46.4}
{"molecule": "CCN(CC)c1nc2c(c(=O)[nH]c(=O)n2C)n1Cc1ccccc1", "solubility kinetic": 30.5}
{"molecule": "COc1ccc(C2(CNC(=O)c3ccc(N)cc3)CCCC2)cc1", "solubility kinetic": 26.7}
{"molecule": "COc1ccccc1/C=C/C1NC(=O)NC(C)=C1C(=O)OC(C)C", "note": "(configuration not stated)", "solubility kinetic": 0.4}
{"molecule": "N#CCCC(CCC#N)C1=NCCc2ccccc21", "solubility kinetic": 36.4}
{"molecule": "CC(=O)c1c(OC(=O)c2cccc(Cl)c2)c2ccccc2n1C", "solubility kinetic": "< 0.7"}
{"molecule": "Cc1cc(C)nc(/N=C(\\N)Nc2ccc(C(C)C)cc2)n1", "solubility kinetic": "> 42.5"}
{"molecule": "Cc1sc(NC(=O)C2=COCCO2)c(C#N)c1C", "solubility kinetic": 5.9}
{"molecule": "CC(C)(C)N1CC(C(=O)Nc2cccc(Cl)c2Cl)CC1=O", "note": "(configuration not stated)", "solubility kinetic": "> 49.4"}
{"molecule": "CCC(C)c1ccc(NC(=O)C2CC3CCC2C3)cc1", "note": "(configuration not stated)", "solubility kinetic": 1.3}
{"molecule": "CC(=O)Nc1ccc(NC(=O)C(C)OC(=O)c2ccc(S(=O)(=O)N3CCCCC3)cc2)cc1", "note": "(configuration not stated)", "solubility kinetic": 6.4}
{"molecule": "O=[N+]([O-])c1ccc2nc(C3CCCCC3)[nH]c2c1", "solubility kinetic": 31.5}
{"molecule": "CC(=O)c1ccc(NC(=S)NCCCN2CCOCC2)cc1", "solubility kinetic": "> 48.2"}
{"molecule": "COCCNC(=S)N1CCC(C(=O)c2ccc(C)cc2)CC1", "solubility kinetic": 43.2}
{"molecule": "COc1ccccc1-c1c(C)nn2c(N3CCOCC3)cc(C)nc12", "solubility kinetic": "> 50.8"}
{"molecule": "N#Cc1ccc(OCC(=O)NCC2COc3ccccc3O2)cc1", "note": "(configuration not stated)", "solubility kinetic": "> 48.7"}
{"molecule": "CCOc1ccc(CCNC(=O)CCC(=O)c2cccs2)cc1OCC", "solubility kinetic": "> 56.3"}
{"molecule": "S=c1nc(C2CCCCC2)[nH]c2ccccc12", "solubility kinetic": 0.5}
{"molecule": "CCN(CC)C(=O)N1CCN(C(=O)N2CCOCC2)CC1", "solubility kinetic": 30}
{"molecule": "O=C(NCCCCc1ccccc1)c1ccc(Br)cc1", "solubility kinetic": "< 0.7"}
{"molecule": "CCC1CN(C(=O)NCc2ccc(F)cc2)c2cc(C)ccc2O1", "note": "(configuration not stated)", "solubility kinetic": 4.3}
{"molecule": "COc1ccc(/C=C/C(=O)NC(=S)NCc2ccccc2)cc1OC", "solubility kinetic": 2.4}
{"molecule": "Cc1cccc(Cn2cc(C=O)c3ccccc32)c1", "solubility kinetic": 14.5}
{"molecule": "O=C(O)c1ccccc1NC(=O)C1C2C=CC(C2)C1C(=O)O", "note": "(configuration not stated)", "solubility kinetic": "> 45.2"}
{"molecule": "CCC(C)Oc1ccc(C(=O)Nc2ccc(CN3CCOCC3)cc2)cc1", "note": "(configuration not stated)", "solubility kinetic": 54.1}
{"molecule": "CCCCOc1ccc(C(=O)N2CCNC(=O)C2)cc1", "solubility kinetic": "> 41.5"}
{"molecule": "COc1ccccc1C(=O)NCCC(=O)NCc1ccncc1", "solubility kinetic": "> 47"}
{"molecule": "Cc1cc(-c2csc3nc[nH]c(=S)c23)cc(C)c1C", "solubility kinetic": 3.1}
{"molecule": "CN(c1ccccc1)S(=O)(=O)c1ccc(-c2ccccc2)cc1", "solubility kinetic": "< 0.7"}
{"molecule": "Cc1ccc(C)c(C(=O)CN2C(=O)c3ccccc3C2=O)c1", "solubility kinetic": 0.9}
